ChEMBL document CHEMBL3988442, “University of Dundee, Small-Polar-MMV Screening Library” (2021)
“And” between values parts separate entries of the source, which are not always exact repeats. Equal entries are not always repeated.

Legend:
[1] = In vitro enzyme assay to detect hydrolysis of chlorophenol red-beta-D-[…] directly proportional to the number of Toxoplasma stably expressing beta-galactosidase; assay type: functional, organism-based, Toxoplasma gondii; conditions: for IC50: Toxoplasma gondii
[2] = system: Mycobacterium tuberculosis; assay: Cornell M. t heat shock assay; assay type: functional, organism-based; conditions: for IC50: Mycobacterium tuberculosis
[3] = microbe, parasite or virus in culture; conditions: Mycobacterium tuberculosis, 96 h, read-out: pIC50 (converted)
[4] = microbe, parasite or virus in culture; conditions: Mycobacterium tuberculosis, 72 h, read-out: pIC50 (converted)
Plasmodium falciparum = assay: Calibr Malaria Delayed Death Assay SOP; assay type: functional, organism-based; conditions: for IC50: Plasmodium falciparum
ClpP1P2 = ClpP1P2 (Mycobacterium tuberculosis (strain ATCC 25618 / H37Rv), UniProt P9WPC3+P9WPC5); assay: in vitro assay to detect presence of AMC directly proportional to the activity of ClpP1P2. GHDDI collaboration.; assay type: functional
Sequence of ClpP1P2 (P9WPC5 whole entry): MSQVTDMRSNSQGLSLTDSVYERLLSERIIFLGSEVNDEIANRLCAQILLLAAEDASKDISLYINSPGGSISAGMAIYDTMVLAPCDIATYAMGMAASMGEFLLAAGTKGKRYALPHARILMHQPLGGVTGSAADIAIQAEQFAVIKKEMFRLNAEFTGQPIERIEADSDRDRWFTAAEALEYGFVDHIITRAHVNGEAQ
Sequence of ClpP1P2 (P9WPC3 whole entry): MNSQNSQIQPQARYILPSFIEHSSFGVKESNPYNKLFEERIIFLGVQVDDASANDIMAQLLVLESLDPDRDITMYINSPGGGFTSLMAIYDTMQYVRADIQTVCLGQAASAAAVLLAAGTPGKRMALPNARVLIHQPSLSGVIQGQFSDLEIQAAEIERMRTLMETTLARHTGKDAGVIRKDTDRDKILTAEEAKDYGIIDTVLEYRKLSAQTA

| SMILES | IC50 [2] [µM] | further results |
| --- | --- | --- |
| Cn1c(CCN2CCN(c3ccc(O)cc3)CC2)nc2ccccc21 | 68.5 | pIC50 [1]: 4.61; IC50 [1]: 23.8 µM |
| COc1ccc(CNC(Cc2ccsc2)c2ccc(C)cn2)c(OC)c1 (centres undefined) | 17.9 | IC50 [3]: > 50.1 µM; IC50 [4]: 48.5 µM |
| Clc1cccc(C[C@@H]2NCCC[C@@H]2Nc2cccc(Cl)c2)c1 | 5.94 | IC50 [3]: 9.04 µM; IC50 [4]: 6.67 µM |
| O[C@@H]1CN(CC2=Cc3cc(Cl)ccc3OC2)CC[C@H]1N1CCCCCC1 | 52.7 | IC50 [3]: 46.9 µM; IC50 [4]: 49.3 µM |
| Oc1cc(C2CCCCN2Cc2cccs2)nc(-c2ccccn2)n1 (centres undefined) | 17.3 | IC50 [1]: 2.42 µM |
| c1cnc(N2CCC(c3csc(Nc4cnccn4)n3)CC2)nc1 | > 100 | IC50 (Plasmodium falciparum): 0.0108 µM |
| Cl.Clc1cccc(N[C@H]2CCCN[C@H]2Cc2ccccc2)c1 | 7.22 | pIC50 (Plasmodium falciparum): 6.045; IC50 (Plasmodium falciparum): 0.981 µM; IC50 [3]: 17 µM; IC50 [4]: 8.59 µM |
| Cc1ccc(S(=O)(=O)NCCc2ccoc2)s1 | 31 | IC50 [3]: 46.2 µM; IC50 [4]: 38 µM |
| Fc1ccccc1CN1CCC[C@@H](Cn2nnc(-c3cccs3)n2)C1 | > 100 | IC50 [3]: 33.3 µM; IC50 [4]: 16.9 µM |
| CCn1ccc(-c2cc(NCCCOc3cccc(C)c3)nc(C)n2)n1 | 55.1 | pIC50 [2]: 4.417; IC50 [3]: 18.9 µM; IC50 [4]: 30.2 µM |
| O=C(NCCc1cccc(F)c1)C1(n2cnnn2)CCCCC1 | 11.1 | IC50 [3]: 43.2 µM; IC50 [4]: 46.9 µM |
| CN1CCCCC1c1ncc2c(n1)CCN(Cc1ccc(Cl)c(F)c1)C2 (centres undefined) | 50.6 | pIC50 (Plasmodium falciparum): 5.794; IC50 (Plasmodium falciparum): 1.55 µM; pIC50 [2]: 4.295 |
| Cc1cccc(CNC(Cc2ccsc2)c2nc(C)c(C)s2)n1.Cl (centres undefined) | 8.25 | pIC50 [2]: 5.24; IC50 (ClpP1P2): > 100 µM; IC50 [3]: > 50.1 µM; IC50 [4]: 31.7 µM |
| Cc1ccc(CN(CCCn2ccnc2)Cc2cc(F)ccc2F)s1.O=C(O)CC(O)(CC(=O)O)C(=O)O | 18.9 | IC50 [1]: 7.16 µM; pIC50 [2]: 4.62 |
| O=C(CN1CC(c2nc(C3CC3)no2)C1)N1CCOCC1.O=C(O)C(=O)O | > 100 | pIC50 [1]: 5.075; IC50 [1]: 5.21 µM |
| NC(=O)NC(=O)CCN1CCN(c2nccs2)CC1 | 35.1 |  |
| CN1CCN(C(=O)c2cnsn2)c2ccc(F)cc21 | 67.4 |  |
| Cc1cccc(CN2CCN(C(=O)c3cc(C4CC4)[nH]n3)CC2)c1 | 77.1 | IC50 [3]: 25 µM; IC50 [4]: 25.8 µM |
| CCCNC(=O)NC(=O)CNC(C)(C)c1ccc2c(c1)OCCO2 | 23.5 | IC50 [3]: 13.3 µM; IC50 [4]: 19 µM |
| CCSCCNc1cc(C)nc2c(C)c(C)nn12 | 23.5 | IC50 [3]: 7.02 µM; IC50 [4]: 5.48 µM |
| Cc1ccccc1C1CCN(CCn2cc(-c3cccc(O)c3)nn2)C1 (centres undefined) | 78.7 |  |
| O=C1CO[C@H]2CN(Cc3cccc4[nH]ccc34)C[C@@H]2N1C1CCOCC1 | > 100 | pIC50 [2]: 4.298 |
| CSc1ccc(CNC(c2ccc(F)cc2)c2nccn2C)cc1 (centres undefined) | 32.5 |  |
| Cc1cc(N2CCOCC2)ccc1NC(C)c1nc(C(C)(C)C)no1 (centres undefined) | > 100 |  |

| SMILES | IC50 [2] [µM] | further results |
| --- | --- | --- |
| CCCN1CCC(c2cc(CCOc3ccc(C(F)(F)F)cc3)[nH]n2)C1 (centres undefined) |  | pIC50 [2]: < 4 and 4.339 |
| CCNc1ncc(C(=O)NCc2ccc3nsnc3c2)cn1 | > 100 |  |
| CC(C)C[C@H](N)COc1cccc(F)c1Oc1ccc(Cl)cc1 | 20.5 | IC50 [3]: 21 µM; IC50 [4]: 17.6 µM |
| COc1cccc(OC)c1CNC(Cc1ccsc1)c1ccc(C)cn1 (centres undefined) | 27 | pIC50 (Plasmodium falciparum): 5.969; IC50 (Plasmodium falciparum): 1.09 µM; IC50 [3]: 12.5 µM; IC50 [4]: 16.4 µM |
| COc1ccc2c(c1)OCC(CNc1cc(N)nc(SC)n1)C2 (centres undefined) | 62.6 |  |
| Nc1cc(N2CCOCC(Cc3ccc4[nH]ccc4c3)C2)ncn1 (centres undefined) |  | pIC50 [2]: < 4 and < 4.31; IC50 [3]: 13.4 µM; IC50 [4]: 28.8 µM |
| CN(C)[C@@H]1CN(Cc2ccccc2O)C[C@H]1c1cn(C)c2ccccc12 | 28.3 | IC50 (ClpP1P2): > 100 µM |
| Cc1[nH]ccc1C(=O)N1CCOCC12CCCC2 | > 100 |  |
| O=C(c1cc2cc(I)ccc2[nH]1)N1CCC(Nc2cccnn2)CC1 | 48.7 |  |
| CCCNC(=O)C(C)n1nc(-c2ccc(C)o2)cc(N)c1=O (centres undefined) | > 100 |  |
| NCC1CCC(c2c(C(=O)NCCO)sc3ccccc23)CC1 (centres undefined) | > 100 |  |
| COc1ccc(OCc2cc(C(=O)N3CCCCO3)n[nH]2)c(Cl)c1 | > 100 |  |
| Cc1cccn2cc(CN3CCCC(c4noc(C5CC5)n4)C3)nc12 (centres undefined) | 46.5 |  |
| CC1CCCN(c2ncc(-c3ccccc3F)c(-c3nccn3C)n2)C1 (centres undefined) |  | pIC50 [2]: 4.289 and 4.7 |
| Cc1ccc(C2CCCN2S(=O)(=O)N(C)CCc2ccccn2)o1 (centres undefined) | > 100 |  |
| CSc1nccc(-c2cccc(-c3ccn(CC4COCCO4)n3)c2)n1 (centres undefined) | 40.3 |  |
| COc1ccccc1CN1CCc2c(nc(-c3ccccn3)[nH]c2=O)C1 | 3.35 |  |
| CN1CCCCC1c1ncc2c(n1)CCN(CCCc1ccccc1)C2 (centres undefined) | 39.4 | pIC50 [2]: 4.46; IC50 [3]: 41.2 µM; IC50 [4]: 44.5 µM |
| O=c1[nH]c(CCN2CCCC2Cn2cncn2)nc2ccccc12 (centres undefined) | 34.3 |  |
| CCOc1cccc2c1OCC(C(=O)NS(=O)(=O)c1c(C)noc1C)=C2 | 69.3 | pIC50 [2]: < 4 |
| CC(C)C1CCCN1CCCc1nc(-c2cccs2)no1 (centres undefined) | > 100 |  |
| COc1ccc(CCNCc2c(C)nn(C)c2N(C)C)cc1OC | > 100 |  |
| COc1cc(C2Nc3cc(Cl)ccc3C3=NCCN32)ccc1O (centres undefined) | > 100 |  |
| Cc1ccc(CNC(c2cccc(F)c2)c2nccn2C)o1 (centres undefined) | > 100 |  |

| SMILES | IC50 [2] [µM] | further results |
| --- | --- | --- |
| O=C(c1cncs1)N1CCCC1c1ccn[nH]1 (centres undefined) | > 100 |  |
| CC(C)c1ncc2c(n1)CN(CCCc1nc3ccccc3o1)CC2 | > 100 |  |
| Cc1noc(NC(=O)c2cccc(Br)c2)n1 | 16 | pIC50 [2]: 4.54; IC50 [3]: 41.8 µM; IC50 [4]: 46.3 µM |
| COc1ccccc1C(C)N(C)Cc1nc2c(cnn2C)c(=O)[nH]1 (centres undefined) | > 100 |  |
| CC(C)N(C(=O)Cn1c(-c2ccco2)cc2cccnc21)C(C)C | > 100 | IC50 (ClpP1P2): > 100 µM |
| CCNC(=O)[C@@H]1C[C@H](NC(=O)Cn2ccnc2)CN1Cc1ccsc1 | > 100 |  |
| CC1(c2ccccc2)CCCN(Cc2cncn2C2CC2)C1 (centres undefined) | 45.7 |  |
| Cc1cc(Nc2ccc(F)cn2)cc(C2CCN(Cc3ncc[nH]3)C2)n1 (centres undefined) | > 100 |  |
| Cc1ccc(CNC(c2ccccc2)c2nccn2C)cc1 (centres undefined) | 19.9 |  |
| Cn1ccnc1C(NCc1ccccc1)c1ccc(F)cc1 (centres undefined) | > 100 |  |
| CC(C)Oc1ncccc1CNC(=O)c1ccccn1 | > 100 |  |
| CCCn1cc(-c2ccnc(NC3CCCc4ccccc43)n2)c(C)n1 (centres undefined) | 21.4 |  |
| Cc1cc(O)cc(=O)n1CCCC(=O)Nc1n[nH]c2cc(Br)ccc12 | > 100 |  |
| COCC(=O)N1CCCC1c1cccc(Nc2ncc(C)s2)n1 (centres undefined) | > 100 |  |
| CCC(=O)N1CCN(C(=O)Cn2cccn2)CC1 | 22.2 |  |
| CC(Cn1cccn1)NCc1csc(COc2ccc(F)cc2)n1 (centres undefined) | 17.2 |  |
| CC(C)Cc1ncc2c(n1)CN(c1nccc(NC(C)C)n1)C2 | 34.5 | IC50 [3]: 15.5 µM; IC50 [4]: 23.9 µM |
| CC1c2ccc(F)cc2CCN1C(=O)c1[nH]c(=O)[nH]c(=O)c1N (centres undefined) | > 100 |  |
| Cc1c(CN(C)c2cc(C3CCCNC3)ncn2)[nH]c2ccccc12 (centres undefined) | > 100 |  |
| CC(C)c1ncc2c(n1)CN(Cc1noc(-c3ccccc3)n1)CC2 | 36.9 | IC50 (ClpP1P2): > 100 µM |
| Cc1cc2c(cc1Cl)C=CC1(CCN(CC(=O)NC3CCCC3)CC1)O2 | 49.9 | IC50 [3]: > 50.1 µM; IC50 [4]: 45.4 µM |
| COc1cccc2sc(N3CCN(C(=O)c4cc(C)on4)CC3)nc12 | > 100 |  |
| O=C(NCCC(O)c1ccoc1)Nc1cccs1 (centres undefined) | > 100 |  |
| CC(=O)N1CCC[C@@H](NCc2c[nH]c3ccccc23)[C@@H]1c1ccc(C)s1 | > 100 |  |

| SMILES | IC50 [2] [µM] | further results |
| --- | --- | --- |
| CCOc1ccccc1-c1cc(N)[nH]n1 | 26.4 |  |
| Cc1cc(C(=O)N2CCN(c3nc4c(C(C)C)cccc4s3)CC2)no1 | 57.9 | IC50 [3]: 42.6 µM; IC50 [4]: > 50.1 µM |
| Cc1ccc(CN(CCCn2ccnc2)Cc2c(F)cccc2F)s1.O=C(O)CC(O)(CC(=O)O)C(=O)O | 23.6 | pIC50 [2]: 4.654 |
| CCN1CCN(c2ccc(NC(C)c3nc(C(C)C)no3)c(C)c2)CC1 (centres undefined) | > 100 |  |
| O=C(Nc1nc2c(s1)CNCC2)NC1CCCC1 | > 100 |  |
| Cc1cc(NCc2ccco2)nc2[nH]nc(N)c12 | > 100 |  |
| Cc1csc(C(Cc2ccsc2)NC(=O)CN(C)Cc2ccccn2)n1 (centres undefined) | > 100 | IC50 (ClpP1P2): > 100 µM |
| COc1cc(CNC(c2ccccc2)c2nccn2C)cc(OC)c1 (centres undefined) | 2.41 |  |
| CCOc1cccc2c1OCC(=O)N(c1ccc(N(C)C)cc1)C2 | 44.1 |  |
| O=C(Cc1c[nH]c2ccccc12)N1CCC(Nc2ccccc2)CC1 | > 100 |  |
| CCC(CN1CCOCC1)n1cncc1-c1ccc2c(c1)CCN2CC (centres undefined) | 98.5 |  |
| Cn1ccnc1-c1nc(NC2CCCC2)ncc1-c1cccc(F)c1 | 40.3 |  |
| CN(C)S(=O)(=O)N1CCCCCC1c1cc(-c2ccc(F)cc2)no1 (centres undefined) | > 100 | pIC50 [2]: 4.075 |
| CCOC(=O)C(C)Nc1cccc(COCc2ccco2)c1 (centres undefined) | > 100 |  |
| Cc1cc(C)n(CC2CCCN2CC(=O)Nc2cc(C(C)C)no2)n1 (centres undefined) |  | pIC50 [2]: 4.348 and 4.706 |
| CC(C)C[C@H](N)COc1cccc(F)c1Oc1cccc(Cl)c1 | 13.9 | IC50 (ClpP1P2): > 100 µM; IC50 [3]: 22.6 µM; IC50 [4]: 18.5 µM |
| O=S(=O)(Nc1cnc(N2CCCC2)nc1)c1ccc(OC(F)(F)F)cc1 | > 100 |  |
| c1cc(CN2CCCCC2c2ccc(Nc3cnccn3)nc2)ccn1 (centres undefined) |  | pIC50 [2]: < 4 and < 4.31 |
| CNC(=O)C1(C)CN(Cc2cn(C)c3ccc(F)cc23)CCO1 (centres undefined) | > 100 |  |
| COc1cccc(CN2CCCC2c2cncc(Nc3nncs3)n2)c1 (centres undefined) | 26.9 |  |
| O=C(CCC(=O)N1CCC(c2noc3cc(F)ccc23)CC1)NC1CC1 | > 100 |  |
